Here are results for two compounds from paper PMC10488193, “Evaluation of the Chemical Stability, Membrane Permeability and Antiproliferative Activity of Cyclic Diarylheptanoids from European Hornbeam (Carpinus betulus L.)” (International Journal of Molecular Sciences, 2023).

pIC50: −log10 of the molar value. Where only a bound is given, the exact number is not on record here.

The subject of data set [1] is A375 human melanoma cell line. The arrangement: method as in PMID 28208804. The conditions noted are these: cited from earlier work.
Data set [2] concerns A549 human lung adenocarcinoma cells. Further details: method as in PMID 28520428, PMID 28941682. The following applies: cited from earlier work.
The test system of data set [3] is HeLa human cervical adenocarcinoma cells. The arrangement: method as in PMID 28520428, PMID 28941682. The following applies: cited from earlier work.
Another data set can be described thus: PAMPA-BBB. The format is in vitro ADME. The following applies: pH 7.4, read-out: logPe PAMPA-BBB (n = 9) (converted). The procedure: A parallel artificial membrane permeability assay (PAMPA) was used to determine the effective permeability (Pe) for the Carpinus diarylheptanoids. Stock solutions of the isolated compounds (10 mM in DMSO) were diluted with the defined buffer (pH 7.4 for the PAMPA-BBB and pH 6.8 for the PAMPA-GI assays) to obtain the donor solutions (composition: 297.0 μL buffer + 3.0 μL stock solution). Donor solutions were filtered through Phenex-RC 15 mm, 0.2 μm syringe filters (Gen-Lab Ltd., Budapest, Hungary).
For the PAMPA-BBB test, 5 μL of porcine polar brain lipid extract (PBLE) solution (16.0 mg PBLE + 8.0 mg cholesterol dissolved in 600.0 μL n-dodecane) was applied for each well of the 96-well polycarbonate-based filter donor plates (top plate) (Multiscreen™-IP, MAIPN4510, pore size 0.45 μm; Merck). […]
After the incubation, the plates were separated and the compound concentrations in the donor (CD(t)) and acceptor (CA(t)) solutions were determined using the aforementioned UHPLC-DAD method (see Section 3.4). […]
All experiments were performed in three triplicates on three consecutive days (n = 9); caffeine standard was used as positive, while rutin was used as negative control. Clog P values were calculated using ACD/ChemSketch (Freeware) 2 January 2020 (Advanced Chemistry Development, Inc., Toronto, ON, Canada).

Consider `O=C1CCc2ccc(O)c(c2)-c2cc(ccc2O)C[C@H](O)[C@H](O)[C@H]1O` [Compound 2, carpinontriol B], for which the “cytotoxic concentration (not cytotoxic up to)” value in data set [1] was more than 1000 µM. The pIC50 in data set [2] and in data set [3] was less than 4.00 each time.
Regarding `O=C1CCc2ccc(O)c(c2)-c2cc(ccc2O)C[C@@H](O)[C@H](O)C1` [Compound 3, giffonin X], the Papp at 4 h, 100 µM in “PAMPA-BBB” was 12 nm/s.

What is called pIC50 is −log10 of the IC50, conventionally taken in molar units.
